The record followed here is PubChem BioAssay AID1259407 (Chemical Carcinogenesis Research Information System (CCRIS), 2018).

The subject of this data set is CCRIS mutagenicity, Ames/micronucleus/aberration tests. Put plainly: CCRIS mutagenicity studies.
Where [1] appears, read: Test System: AMES SALMONELLA TYPHIMURIUM, Strain/Indicator: TA97, Metabolic Activation: NONE, Method: PREINCUBATION
The mark [2] stands for this setting: Test System: AMES SALMONELLA TYPHIMURIUM, Strain/Indicator: TA98, Metabolic Activation: HAMSTER, LIVER, S-9, AROCLOR 1254 (10%), Method: PREINCUBATION
The mark [3] stands for this setting: Test System: AMES SALMONELLA TYPHIMURIUM, Strain/Indicator: TA98, Metabolic Activation: NONE, Method: PREINCUBATION
Where [4] appears, read: Test System: AMES SALMONELLA TYPHIMURIUM, Strain/Indicator: TA98, Metabolic Activation: RAT, LIVER, S-9, AROCLOR 1254 (10%), Method: PREINCUBATION
[5] abbreviates: Test System: AMES SALMONELLA TYPHIMURIUM, Strain/Indicator: TA100, Metabolic Activation: HAMSTER, LIVER, S-9, AROCLOR 1254 (10%), Method: PREINCUBATION
Setting [6] is: Test System: AMES SALMONELLA TYPHIMURIUM, Strain/Indicator: TA100, Metabolic Activation: NONE, Method: PREINCUBATION
Setting [7] is: Test System: AMES SALMONELLA TYPHIMURIUM, Strain/Indicator: TA100, Metabolic Activation: RAT, LIVER, S-9, AROCLOR 1254 (10%), Method: PREINCUBATION
The mark [8] stands for this setting: Test System: AMES SALMONELLA TYPHIMURIUM, Strain/Indicator: TA1535, Metabolic Activation: HAMSTER, LIVER, S-9, AROCLOR 1254 (10%), Method: PREINCUBATION
Setting [9] is: Test System: AMES SALMONELLA TYPHIMURIUM, Strain/Indicator: TA1535, Metabolic Activation: NONE, Method: PREINCUBATION
Where [10] appears, read: Test System: AMES SALMONELLA TYPHIMURIUM, Strain/Indicator: TA1535, Metabolic Activation: RAT, LIVER, S-9, AROCLOR 1254 (10%), Method: PREINCUBATION
Setting [11] is: Test System: AMES SALMONELLA TYPHIMURIUM, Strain/Indicator: TA100, Metabolic Activation: NONE, Method: STANDARD PLATE.

Active and inactive are the calls of the source. How the calls were made is not given here.

As to `CCS(=O)CCSP(=O)(OC)OC` (configuration not stated), the mutagenic call was “inactive; negative” (Test System: AMES SALMONELLA TYPHIMURIUM, Strain/Indicator: TA97, Metabolic Activation: HAMSTER, LIVER, S-9, AROCLOR 1254 (10%), Method: PREINCUBATION); “inactive; negative” under setting [1]; “inactive; negative” (Test System: AMES SALMONELLA TYPHIMURIUM, Strain/Indicator: TA97, Metabolic Activation: RAT, LIVER, S-9, AROCLOR 1254 (10%), Method: PREINCUBATION); “inactive; negative” under setting [2]; “inactive; negative” under setting [3]; “inactive; negative” under setting [4]. Further, the mutagenic call under setting [5] was “active; positive”; the mutagenic call under setting [6] was “inactive; negative”; the mutagenic call under setting [7] is “active; positive”; the mutagenic call under setting [8] is “active; positive”; the mutagenic call under setting [9] was “active; positive”; the mutagenic call under setting [10] was “active; positive”.

On to `C[C@@H](C(=O)OC(C)(C)C)N(N=[N+]=[N-])C(=O)OC(C)(C)C`, for which, under setting [11], the mutagenic call is “active; positive”.

On to `O=C1c2c(O)ccc(O)c2C(=O)c2c(NCCNCCO)ccc(NCCNCCO)c21`, for which the mutagenic call is, setting by setting: (Test System: AMES SALMONELLA TYPHIMURIUM, Strain/Indicator: TA97, Metabolic Activation: NONE, Method: STANDARD PLATE) “inactive; negative”; (Test System: AMES SALMONELLA TYPHIMURIUM, Strain/Indicator: TA97, Metabolic Activation: RAT, LIVER, S-9, PHENOBARBITAL AND ALPHA-NAPHTHOFLAVONE, Method: STANDARD PLATE) “inactive; negative”; (Test System: AMES SALMONELLA TYPHIMURIUM, Strain/Indicator: TA97A, Metabolic Activation: NONE, Method: STANDARD PLATE) “inactive; negative”; (Test System: AMES SALMONELLA TYPHIMURIUM, Strain/Indicator: TA98, Metabolic Activation: NONE, Method: STANDARD PLATE) “active; positive”; (Test System: AMES SALMONELLA TYPHIMURIUM, Strain/Indicator: TA98, Metabolic Activation: RAT, LIVER, S-9, PHENOBARBITAL AND ALPHA-NAPHTHOFLAVONE, Method: STANDARD PLATE) “active; positive”; under setting [11], “inactive; negative”. Further, the mutagenic call runs as follows: (Test System: AMES SALMONELLA TYPHIMURIUM, Strain/Indicator: TA100, Metabolic Activation: RAT, LIVER, S-9, PHENOBARBITAL AND ALPHA-NAPHTHOFLAVONE, Method: STANDARD PLATE) “inactive; negative”; (Test System: AMES SALMONELLA TYPHIMURIUM, Strain/Indicator: TA1535, Metabolic Activation: NONE, Method: STANDARD PLATE) “inactive; negative”; (Test System: AMES SALMONELLA TYPHIMURIUM, Strain/Indicator: TA1535, Metabolic Activation: RAT, LIVER, S-9, PHENOBARBITAL AND ALPHA-NAPHTHOFLAVONE, Method: STANDARD PLATE) “inactive; negative”; (Test System: AMES SALMONELLA TYPHIMURIUM, Strain/Indicator: TA1538, Metabolic Activation: NONE, Method: STANDARD PLATE) “active; positive”; (Test System: MOUSE LYMPHOMA, Strain/Indicator: L5178Y (TK+/TK-), Metabolic Activation: NONE, Method: SUSPENSION/PLATE) “active; positive”; (Test System: MOUSE LYMPHOMA, Strain/Indicator: L5178Y (TK+/TK-), Metabolic Activation: RAT, LIVER, S-9, AROCLOR 1242 AND 1254 (2:1), Method: SUSPENSION/PLATE) “active; positive”.

In the case of `O=C1NC(=O)C(O)(O)C(=O)N1`, the mutagenic call (End Point: IN VITRO CHROMOSOMAL ABERRATIONS, Test System: CHO CELLS, Metabolic Activation: NONE) is “inactive; negative”; the mutagenic call (End Point: IN VITRO CHROMOSOMAL ABERRATIONS, Test System: CHO CELLS, Metabolic Activation: RAT, LIVER, S-9, AROCLOR 1254) was “inactive; negative”; the mutagenic call (Test System: AMES SALMONELLA TYPHIMURIUM, Strain/Indicator: TA97, Metabolic Activation: HAMSTER, LIVER, S-9, AROCLOR 1254 (10 OR 30%), Method: PREINCUBATION) is “inactive; negative”; the mutagenic call under setting [1] was “inactive; negative”; the mutagenic call (Test System: AMES SALMONELLA TYPHIMURIUM, Strain/Indicator: TA97, Metabolic Activation: RAT, LIVER, S-9, AROCLOR 1254 (10 OR 30%), Method: PREINCUBATION) was “inactive; negative”; the mutagenic call (Test System: AMES SALMONELLA TYPHIMURIUM, Strain/Indicator: TA98, Metabolic Activation: HAMSTER, LIVER, S-9, AROCLOR 1254 (10 OR 30%), Method: PREINCUBATION) was “inactive; negative”. The mutagenic call under setting [3] was “inactive; negative”; the mutagenic call (Test System: AMES SALMONELLA TYPHIMURIUM, Strain/Indicator: TA98, Metabolic Activation: RAT, LIVER, S-9, AROCLOR 1254 (10 OR 30%), Method: PREINCUBATION) is “inactive; negative”; the mutagenic call (Test System: AMES SALMONELLA TYPHIMURIUM, Strain/Indicator: TA100, Metabolic Activation: HAMSTER, LIVER, S-9, AROCLOR 1254 (10 OR 30%), Method: PREINCUBATION) was “inactive; negative”; the mutagenic call under setting [6] was “inactive; negative”; the mutagenic call (Test System: AMES SALMONELLA TYPHIMURIUM, Strain/Indicator: TA100, Metabolic Activation: RAT, LIVER, S-9, AROCLOR 1254 (10 OR 30%), Method: PREINCUBATION) is “inactive; negative”; the mutagenic call under setting [8] is “inactive; negative”. Moreover, the mutagenic call reads like this: (Test System: AMES SALMONELLA TYPHIMURIUM, Strain/Indicator: TA1535, Metabolic Activation: HAMSTER, LIVER, S-9, AROCLOR 1254 (30%), Method: PREINCUBATION) “inactive; negative”; under setting [9], “inactive; negative”; (Test System: AMES SALMONELLA TYPHIMURIUM, Strain/Indicator: TA1535, Metabolic Activation: RAT, LIVER, S-9, AROCLOR 1254 (10 OR 30%), Method: PREINCUBATION) “inactive; negative”.

Regarding `O=C1CSC(=S)N1`, the mutagenic call reads like this: under setting [2], “inactive; negative”; under setting [3], “inactive; negative”; under setting [4], “inactive; negative”; under setting [5], “inactive; negative”; under setting [6], “inactive; negative”; under setting [7], “inactive; negative”. For the same compound, the mutagenic call reads like this: under setting [8], “inactive; negative”; under setting [9], “inactive; negative”; under setting [10], “inactive; negative”; (Test System: AMES SALMONELLA TYPHIMURIUM, Strain/Indicator: TA1537, Metabolic Activation: HAMSTER, LIVER, S-9, AROCLOR 1254 (10%), Method: PREINCUBATION) “inactive; negative”; (Test System: AMES SALMONELLA TYPHIMURIUM, Strain/Indicator: TA1537, Metabolic Activation: NONE, Method: PREINCUBATION) “inactive; negative”; (Test System: AMES SALMONELLA TYPHIMURIUM, Strain/Indicator: TA1537, Metabolic Activation: RAT, LIVER, S-9, AROCLOR 1254 (10%), Method: PREINCUBATION) “inactive; negative”.
